Assays:
[1] = QCM: adsorption of nanodiscs on silica sensor; format: physicochemical; details: nanodiscs 0.15 mg/mL in PBS, 150 μL/min, 5 min, 20 °C, versus 22A
Description: Impedance-based QCM instrument QCM-Z500 (KSV Instruments Ltd., Helsinki, Finland) was used for the measurements. The temperature was kept constant at 20 °C. Before measurements, silica-coated sensors (Q-Sense Inc./Biolin Scientific, Västra Frölunda, Sweden) were flushed with 70% (v/v) ethanol and ultrapure water, dried under nitrogen flow, and oxygen-plasma-treated (PDC-002; Harrick Plasma, Ithaca, NY) for 5 min at 29.6 W and 133–173 Pa. Samples were injected into the flow channel using a peristaltic pump system. After the baseline of the signal at different frequency overtones (3, 5, and 7) was stabilized in PBS, a nanodisc surface was formed by flowing nanodisc solution (0.15 mg/mL in PBS, 150 μL/min) on the sensor for 5 min, until the signal was again stabilized. Flow speed was then decreased to 75 μL/min for 5 min of flow with PBS to ensure a solid, uniform nanodisc surface. Next, 10 nM (0.47 μg/mL) LCAT was then injected through the flow channel at 75 μL/min for 17 min. Then, the running solution was again changed to PBS to see the frequency signal stabilize. All measurements were performed three times; between measurements, the sensor and the flow channel were cleaned in situ by 3 min sequential injections of 20 mM CHAPS, 2% (v/v) Hellmanex, 70% (v/v) ethanol, and ultrapure water at 150 μL/min. […]

[2] = system: LCAT; assay: QCM: LCAT binding to peptide-lipid nanodiscs on sensor; parameters: species or system human; details: for adsorption of LCAT on the discs (in words): 10 nM LCAT in PBS, 20 °C, versus 22A; for estimated number of LCAT enzymes bound per disc: calculated from adsorbed mass after LCAT injection (10 nM LCAT in PBS, 75 μL/min, 17 min, 20 °C), DMPC nanodiscs, three measurements
From the text: (§1) ApoA-I mimetic peptides 22A ([…]), 22A-K22Q ([…]), and 22A-R7Q ([…]) were obtained from Peptide Protein Research Ltd. (Fareham, UK). 1,2-Dimyristoyl-sn-glycerol-3-phosphocholine (DMPC), 1,2-dipalmitoyl-sn-glycerol-3-phosphocholine (DPPC), and ergosta-5,7,9,(11),22-tetra-3beta-ol (dehydroergosterol, DHE) were purchased from Avanti Polar Lipids Inc. (Alabaster, AL). Recombinant human lecithin cholesterol acyltransferase (LCAT) was synthesized by ProSpec-Tany TechnoGene Ltd. (East Brunswick, NJ). Cholesterol oxidase (COx) was obtained from Sigma-Aldrich (St. Louis, MO).
Before QCM measurements, the LCAT stock solution was prepared by dissolving 10 μg of LCAT in 500 μL of PBS. The solution was centrifuged (14 000g) twice through Amicon Ultra-0.5, 10 kDa cutoff filter (Sigma-Aldrich) for buffer exchange and purification. The retentate was diluted to a total volume of 500 μL (PBS) after each step. Prepared 20 μg/mL (∼430 nM) LCAT solution was stored in −20 °C before further use.
Impedance-based QCM instrument QCM-Z500 (KSV Instruments Ltd., Helsinki, Finland) was used for the measurements. The temperature was kept constant at 20 °C. Before measurements, silica-coated sensors (Q-Sense Inc./Biolin Scientific, Västra Frölunda, Sweden) were flushed with 70% (v/v) ethanol and ultrapure water, dried under nitrogen flow, and oxygen-plasma-treated (PDC-002; Harrick Plasma, Ithaca, NY) for 5 min at 29.6 W and 133–173 Pa. Samples were injected into the flow channel using a peristaltic pump system. After the baseline of the signal at different frequency overtones (3, 5, and 7) was stabilized in PBS, a nanodisc surface was formed by flowing nanodisc solution (0.15 mg/mL in PBS, 150 μL/min) on the sensor for 5 min, until the signal was again stabilized. Flow speed was then decreased to 75 μL/min for 5 min of flow with PBS to ensure a solid, uniform nanodisc surface. Next, 10 nM (0.47 μg/mL) LCAT was then injected through the flow channel at 75 μL/min for 17 min. Then, the running solution was again changed to PBS to see the frequency signal stabilize. All measurements were performed three times; between measurements, the sensor and the flow channel were cleaned in situ by 3 min sequential injections of 20 mM CHAPS, 2% (v/v) Hellmanex, 70% (v/v) ethanol, and ultrapure water at 150 μL/min. Frequency overtone signals were normalized, baseline corrected, and averaged for each measurement.

[3] = system: recombinant human lecithin cholesterol acyltransferase (LCAT); assay: LCAT activity assay (DHE esterification in DMPC/DHE/peptide nanodiscs); format: biochemical; details: relative to 22A, 30 min; for LCAT activity (in words): pH 7.4, 37 °C, fluorescence
From the text: as §1
The LCAT activity assay relies on the integration of DHE in the nanodisc structure as a substrate for LCAT. DHE is a naturally occurring fluorescent sterol analog; the presence of three conjugated double bonds in the steroid ring system gives this probe a slight fluorescence in the near-UV region of the spectrum.[42] As a consequence of the acyltransferase activity of LCAT, DHE in the PL bilayer is stored in the inner core of sHDL as DHE-ester. The esterification of DHE causes a shift in the sterol analog emission wavelength from 372 to 425 nm; this shift, together with the use of COx, which selectively renders the unesterified DHE nonfluorescent, allows the exclusive detection and quantification of the DHE-ester. This provides information about the LCAT–sHDL interaction and activity.[43],[44] sHDL containing the fluorescent sterol DHE for LCAT activity assay was prepared via thermal cycling method. In a glass vial, DMPC and DHE in chloroform were combined at a 9:1 molar ratio and were first dried with Rotavapor R-200 at room temperature for 1–2 h and then an additional 1 h under nitrogen flow at room temperature. […] After this, the plates went through a second round of incubation at 37 °C with gentle shaking (250 rpm/h) for 1 h to extinguish the fluorescence of unesterified DHE. After re-equilibrating the plate at room temperature, DHE fluorescence was detected at an excitation wavelength of 325 nm and an emission wavelength of 425 nm using Varioskan LUX (Thermo Scientific, Waltham, MA). […]

[4] = system: LCAT; details: cited from earlier work
From the text: The ... || The formation of acyl intermediate of LCAT requiring the entry of PCs into the active site is another important factor in LCAT activity. […] We have also ...

[5] = system: LCAT; details: cited from earlier work; remark: listed apart in the source
From the text: Therefore, this has long been a sought-after property of synthetic HDL-mimetic nanodiscs and apoA-I mimetic peptides. The nativelike maturation of the nanodiscs by lecithin–cholesterol acyltransferase (LCAT) has been regarded as a desired feature as it would lead to the esterification of free CHOL and the formation of hydrophobic cholesteryl ester (CE)-rich core. […] The ... || To investigate the location, conformation, and dynamics of apoA-Imimetic peptides in nanodiscs in silico, we complexed coarse-grained models of DMPC lipids with models of apoA-Imimetic peptides 22A and 22A-K and simulated the systems up to 80 μs, measured in the effective Martini force field time. To prepare the systems, 200 lipids and 28 peptides were placed randomly into the simulation box, and after a short vacuum simulation to compress them, the systems were solvated. Equilibrated nanodiscs formed rapidly after starting the production runs. The proteolytic removal of C-terminal lysine of 2 ... || (+ 2 further places)

| Sequence | adsorption of nanodiscs on the sensor (in words) [1] | adsorption of LCAT on the discs (in words) [2] | estimated number of LCAT enzymes bound per disc [2] | LCAT activity (in words) [3] | effect on phospholipolytic action of LCAT on removal of K22 (in words) [4] | decrease of CHOL esterification on removal of K22 ([5]; 22A without C-terminal K22 versus 22A) | LCAT activation on removal of C-terminal lysine (in words) ([5]; proteolytic removal in serum) | LCAT activation (in words) ([5]; versus native apoA-I) | decrease of LCAT activity ([3]; lipid:peptide 2:1 w/w, DHE 0-35 μM, LCAT 7 μg/mL, PBS + 1 mM EDTA + 60 μM albumin pH 7.4, 37 °C, fluorescence 325/425 nm, triplicate, two independent experiments) |
| --- | --- | --- | --- | --- | --- | --- | --- | --- | --- |
| PVLDLFQELLNELLEALKQKLK [22A-R7Q, 22A variant with charge neutralization of residue R7] | decreased adsorption of nanodiscs on the sensor | reduced the adsorption of LCAT on the discs | one LCAT was attached to every five nanodiscs | nearly identical activity with 22A | – | – | – | – | – |
| PVLDLFRELLNELLEALKQKL [22A-K, 22A without C-terminal lysine K22] | – | – | – | – | no effect on phospholipolytic action mediated by LCAT | ~60% | significantly reduces LCAT activation | – | – |
| PVLDLFRELLNELLEALKQKLK [22A, apoA-I mimetic peptide 22A (Esperion Therapeutics, ESP24218)] | – | – | approximately one LCAT was bound to every two nanodiscs | – | – | – | – | activate LCAT nearly as well as native apoA-I | – |
| PVLDLFRELLNELLEALKQKLQ [22A-K22Q, 22A variant with charge neutralization of residue K22] | decreased adsorption of nanodiscs on the sensor | reduced the adsorption of LCAT on the discs | one LCAT was attached to every five nanodiscs | decreased the LCAT activation potency | – | – | – | – | 50% |
